Measurements taken from US8513283B2, “Spiro substituted compounds as angiogenesis inhibitors” (Advenchen Laboratories, LLC, priority 2007, dated 2013).

Legend:
[1] = molecular target: Flt1(h) (Homo sapiens, UniProt P17948); assay: in vitro tyrosine kinase inhibition; type: biochemical
Description: (§1) Several in vitro tyrosine kinase inhibition activities can be measured according to the description in Rewcastle, G W, J. Med. Chem. 1996, 39, 918-928 and Edwards M, International Biotechnology Lab 5 (3), 19-25, 1987. Oncogene, 1990, 5: 519-524. The Baculovirus Expression System: A Laboratory Guide, L. A. King 1992. Sambrook et al, 1989, Molecular cloning—A Laboratory Manual, 2nd edition, Cold Spring Harbour Laboratory Press. O'Reilly et al, 1992, Baculovirus Expression Vectors—A Laboratory Manual, W. H. Freeman and Co, New York.
(§2) Receptor tyrosine kinase can be obtained in partially purified form from A-431 cells similar to those described by Carpenter et al., J. Biol. Chem., 1979, 254, 4884, Cohen et al., J. Biol. Chem., 1982, 257, 1523 and by Braun et al., J. Biol. Chem., 1984, 259, 2051. Some of these tests can also be contracted with Millipore Upstate Ltd for screening.

[2] = molecular target: PDGFRα(h) (Homo sapiens, UniProt P16234); assay: in vitro tyrosine kinase inhibition; type: biochemical
Description: as §1, §2

[3] = molecular target: Flt4(h) (Homo sapiens, UniProt P35916); assay: in vitro tyrosine kinase inhibition; type: biochemical
Description: as §1, §2

[4] = molecular target: cKit(h) (Homo sapiens, UniProt P10721); assay: in vitro tyrosine kinase inhibition; type: biochemical
Description: as §1, §2

[5] = system: human colon cancer HT29 xenograft; assay: animal antitumor activity, HT29 xenograft; type: in vivo, mice; conditions: FIG. 1
[6] = molecular target: KDR(h) (Homo sapiens, UniProt P35968); assay: in vitro tyrosine kinase inhibition; type: biochemical
[7] = molecular target: c-RAF(h) (Homo sapiens, UniProt P04049); assay: in vitro kinase inhibition; type: biochemical
Description: as §1, §2

[8] = system: human liver cancer Bel-7402 xenograft; assay: animal antitumor activity, Bel-7402 xenograft; type: in vivo, mice; conditions: FIG. 2

Sequence of Flt1(h) (P17948 27-1338): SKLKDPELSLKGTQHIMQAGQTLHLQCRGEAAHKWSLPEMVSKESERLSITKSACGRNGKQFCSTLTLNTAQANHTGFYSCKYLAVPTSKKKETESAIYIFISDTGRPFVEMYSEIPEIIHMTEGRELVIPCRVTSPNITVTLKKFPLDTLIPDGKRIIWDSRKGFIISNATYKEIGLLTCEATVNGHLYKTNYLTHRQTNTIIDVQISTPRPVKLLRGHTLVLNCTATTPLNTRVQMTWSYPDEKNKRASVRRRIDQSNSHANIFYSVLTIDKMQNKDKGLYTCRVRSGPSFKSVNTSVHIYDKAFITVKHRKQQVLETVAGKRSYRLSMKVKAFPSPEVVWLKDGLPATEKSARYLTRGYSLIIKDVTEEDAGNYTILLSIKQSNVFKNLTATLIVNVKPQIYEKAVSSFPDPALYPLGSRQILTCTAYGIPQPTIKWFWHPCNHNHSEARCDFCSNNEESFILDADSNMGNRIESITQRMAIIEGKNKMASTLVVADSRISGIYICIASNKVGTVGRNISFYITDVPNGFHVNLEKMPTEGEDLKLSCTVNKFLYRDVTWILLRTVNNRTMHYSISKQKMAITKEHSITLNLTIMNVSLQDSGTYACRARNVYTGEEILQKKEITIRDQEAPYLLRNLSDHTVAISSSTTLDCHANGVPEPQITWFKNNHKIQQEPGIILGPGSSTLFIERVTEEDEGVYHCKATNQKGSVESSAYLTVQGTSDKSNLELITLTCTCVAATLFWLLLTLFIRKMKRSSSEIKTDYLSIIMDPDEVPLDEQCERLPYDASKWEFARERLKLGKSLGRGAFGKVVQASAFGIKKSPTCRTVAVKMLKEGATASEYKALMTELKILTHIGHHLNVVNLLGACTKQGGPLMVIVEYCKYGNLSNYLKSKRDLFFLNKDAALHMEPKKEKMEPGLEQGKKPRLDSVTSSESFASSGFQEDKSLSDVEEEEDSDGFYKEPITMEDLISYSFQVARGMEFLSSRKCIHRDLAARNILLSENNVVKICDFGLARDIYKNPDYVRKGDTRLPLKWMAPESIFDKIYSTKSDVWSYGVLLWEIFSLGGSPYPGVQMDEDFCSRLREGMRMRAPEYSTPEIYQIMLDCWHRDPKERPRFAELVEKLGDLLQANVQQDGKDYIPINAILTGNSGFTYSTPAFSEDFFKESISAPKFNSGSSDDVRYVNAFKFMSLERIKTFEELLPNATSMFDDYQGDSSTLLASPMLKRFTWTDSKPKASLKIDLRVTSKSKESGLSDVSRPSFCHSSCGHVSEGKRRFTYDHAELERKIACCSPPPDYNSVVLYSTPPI
Sequence of Flt4(h) (P35916 25-1363): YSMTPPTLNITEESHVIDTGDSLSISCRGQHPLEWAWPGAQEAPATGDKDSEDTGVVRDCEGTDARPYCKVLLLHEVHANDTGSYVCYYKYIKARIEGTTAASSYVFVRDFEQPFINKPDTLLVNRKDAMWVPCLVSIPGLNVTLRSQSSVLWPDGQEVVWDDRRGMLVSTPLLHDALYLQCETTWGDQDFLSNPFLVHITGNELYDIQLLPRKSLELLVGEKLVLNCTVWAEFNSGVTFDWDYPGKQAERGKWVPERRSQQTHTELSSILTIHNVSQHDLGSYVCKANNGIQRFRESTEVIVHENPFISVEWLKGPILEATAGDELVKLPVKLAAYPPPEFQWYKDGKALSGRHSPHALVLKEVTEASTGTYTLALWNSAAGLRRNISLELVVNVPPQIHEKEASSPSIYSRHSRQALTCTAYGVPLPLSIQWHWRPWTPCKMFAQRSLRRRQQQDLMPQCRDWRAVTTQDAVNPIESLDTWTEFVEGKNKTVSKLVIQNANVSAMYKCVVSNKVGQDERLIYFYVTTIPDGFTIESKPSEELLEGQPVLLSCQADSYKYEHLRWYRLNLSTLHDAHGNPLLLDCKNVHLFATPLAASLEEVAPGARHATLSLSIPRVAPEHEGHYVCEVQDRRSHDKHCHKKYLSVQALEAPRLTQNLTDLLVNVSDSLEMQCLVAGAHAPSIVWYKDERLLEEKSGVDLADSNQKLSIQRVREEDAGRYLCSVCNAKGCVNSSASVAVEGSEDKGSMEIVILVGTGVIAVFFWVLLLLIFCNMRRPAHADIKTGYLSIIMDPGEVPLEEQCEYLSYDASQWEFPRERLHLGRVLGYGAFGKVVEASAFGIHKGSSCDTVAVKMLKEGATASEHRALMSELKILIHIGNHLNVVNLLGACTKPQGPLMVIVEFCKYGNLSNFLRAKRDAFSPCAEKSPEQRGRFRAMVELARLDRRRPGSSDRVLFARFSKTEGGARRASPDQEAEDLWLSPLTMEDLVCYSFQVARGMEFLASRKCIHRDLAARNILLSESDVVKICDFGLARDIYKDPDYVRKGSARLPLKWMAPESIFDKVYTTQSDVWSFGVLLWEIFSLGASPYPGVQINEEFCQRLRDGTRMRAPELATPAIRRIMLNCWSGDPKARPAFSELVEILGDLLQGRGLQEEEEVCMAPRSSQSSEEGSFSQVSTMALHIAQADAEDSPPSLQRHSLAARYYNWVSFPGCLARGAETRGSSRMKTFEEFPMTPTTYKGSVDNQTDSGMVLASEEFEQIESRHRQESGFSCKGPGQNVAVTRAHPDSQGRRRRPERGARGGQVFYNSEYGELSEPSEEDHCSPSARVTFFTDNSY
Sequence of PDGFRα(h) (P16234 24-1089): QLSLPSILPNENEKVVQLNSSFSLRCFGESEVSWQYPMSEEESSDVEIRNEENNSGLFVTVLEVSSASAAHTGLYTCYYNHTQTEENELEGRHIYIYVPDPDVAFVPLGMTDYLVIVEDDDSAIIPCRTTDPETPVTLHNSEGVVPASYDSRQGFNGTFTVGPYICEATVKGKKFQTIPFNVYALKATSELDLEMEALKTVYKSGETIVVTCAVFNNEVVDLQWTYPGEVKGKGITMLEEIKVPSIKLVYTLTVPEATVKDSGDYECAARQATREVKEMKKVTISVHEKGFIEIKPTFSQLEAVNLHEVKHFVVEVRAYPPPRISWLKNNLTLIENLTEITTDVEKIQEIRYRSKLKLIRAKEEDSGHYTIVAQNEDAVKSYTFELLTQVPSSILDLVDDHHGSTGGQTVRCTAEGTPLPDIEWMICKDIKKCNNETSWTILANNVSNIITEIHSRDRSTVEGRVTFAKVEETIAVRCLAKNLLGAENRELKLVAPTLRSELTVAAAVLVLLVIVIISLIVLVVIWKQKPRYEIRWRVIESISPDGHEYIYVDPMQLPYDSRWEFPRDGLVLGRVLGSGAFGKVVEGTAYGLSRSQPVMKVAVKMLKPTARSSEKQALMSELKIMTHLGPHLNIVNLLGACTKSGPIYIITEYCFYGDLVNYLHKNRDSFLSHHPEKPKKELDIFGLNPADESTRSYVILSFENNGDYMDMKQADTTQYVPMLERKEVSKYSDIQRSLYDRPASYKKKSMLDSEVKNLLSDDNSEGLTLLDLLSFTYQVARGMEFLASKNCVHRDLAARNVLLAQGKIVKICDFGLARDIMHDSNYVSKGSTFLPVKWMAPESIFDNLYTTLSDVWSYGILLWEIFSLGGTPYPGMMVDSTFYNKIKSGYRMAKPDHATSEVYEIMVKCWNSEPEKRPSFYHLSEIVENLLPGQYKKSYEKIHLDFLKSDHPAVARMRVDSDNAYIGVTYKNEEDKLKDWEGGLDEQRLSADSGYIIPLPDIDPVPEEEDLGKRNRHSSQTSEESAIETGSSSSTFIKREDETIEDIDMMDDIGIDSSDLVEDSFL
Sequence of cKit(h) (P10721 26-976): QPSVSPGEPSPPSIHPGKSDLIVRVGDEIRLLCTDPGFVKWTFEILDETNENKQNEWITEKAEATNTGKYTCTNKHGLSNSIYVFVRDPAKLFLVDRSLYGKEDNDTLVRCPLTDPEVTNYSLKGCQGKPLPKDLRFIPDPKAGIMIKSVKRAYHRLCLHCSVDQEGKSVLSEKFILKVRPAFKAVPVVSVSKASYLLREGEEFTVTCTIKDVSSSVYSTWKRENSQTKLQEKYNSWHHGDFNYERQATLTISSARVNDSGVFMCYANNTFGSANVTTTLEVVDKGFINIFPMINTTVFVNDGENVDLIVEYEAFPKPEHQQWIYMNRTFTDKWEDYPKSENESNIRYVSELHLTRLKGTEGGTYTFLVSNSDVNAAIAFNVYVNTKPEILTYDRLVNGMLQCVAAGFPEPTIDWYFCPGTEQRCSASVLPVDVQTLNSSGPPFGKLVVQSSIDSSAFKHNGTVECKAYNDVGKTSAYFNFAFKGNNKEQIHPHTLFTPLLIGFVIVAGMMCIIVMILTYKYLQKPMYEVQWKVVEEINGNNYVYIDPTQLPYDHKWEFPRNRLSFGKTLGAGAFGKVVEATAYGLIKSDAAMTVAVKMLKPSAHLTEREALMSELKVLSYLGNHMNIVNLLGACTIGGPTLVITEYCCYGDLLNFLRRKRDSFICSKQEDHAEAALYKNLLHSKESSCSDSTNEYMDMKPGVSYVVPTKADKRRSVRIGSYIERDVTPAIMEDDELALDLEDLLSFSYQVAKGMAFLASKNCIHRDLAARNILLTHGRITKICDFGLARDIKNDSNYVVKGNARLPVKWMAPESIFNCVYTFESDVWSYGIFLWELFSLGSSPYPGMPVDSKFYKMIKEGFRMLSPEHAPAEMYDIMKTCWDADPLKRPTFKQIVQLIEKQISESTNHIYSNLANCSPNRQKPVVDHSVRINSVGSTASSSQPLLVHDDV

Compound: CNC(=O)c1cccc2cc(Oc3ccnc4cc(OCC5(N)CC5)c(OC)cc34)ccc12 [AL3810]
- IC50 [1]: 4 nM
- IC50 [2]: 219 nM
- IC50 [3]: 2 nM
- IC50 [4]: 234 nM
- efficacy on animal model compared with SU11248 [5]: better efficacy than SU11248
- IC50 [6]: 15 nM
- IC50 [7]: 293 nM
- efficacy on animal model compared with Nexavar [8]: better efficacy
